From PubChem BioAssay AID330 (DTP/NCI, 2004)
Where “and” joins values, the source holds several entries; their conditions need not be identical. Identical values can stand only once. Inconclusive results and toxic doses are left out.

System: P388 leukemia ip, CD2F1 mice, survival T/C
Test: NCI In Vivo Anticancer Drug Screen. Data for tumor model P388 Leukemia (intraperitoneal) in CD2F1 (CDF1) mice
Details: endpoint: median survival time, higher = longer survival
How it was run: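 Mice carrying the transplanted tumor received test compound or vehicle. Survival was recorded in each group, and the value is the treated-group measurement divided by that of the vehicle-treated control group.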

[1] = dose: 60.0 mg/kg/injection, schedule: Q01DX005 (ip), vehicle: saline
[2] = dose: 120.0 mg/kg/injection, schedule: Q01DX005 (ip), vehicle: saline
[3] = dose: 240.0 mg/kg/injection, schedule: Q01DX005 (ip), vehicle: saline
[4] = dose: 50.0 mg/kg/injection, schedule: Q01DX005 (ip), vehicle: saline with Tween-80
[5] = dose: 100.0 mg/kg/injection, schedule: Q01DX005 (ip), vehicle: saline with Tween-80
[6] = dose: 60.0 mg/kg/injection, schedule: Q01DX005 (ip), vehicle: saline with Tween-80
[7] = dose: 120.0 mg/kg/injection, schedule: Q01DX005 (ip), vehicle: saline with Tween-80
[8] = dose: 240.0 mg/kg/injection, schedule: Q01DX005 (ip), vehicle: saline with Tween-80
[9] = dose: 50.0 mg/kg/injection, schedule: Q01DX009 (ip), vehicle: saline with Tween-80
[10] = dose: 50.0 mg/kg/injection, schedule: Q01DX009 (ip), vehicle: saline
[11] = dose: 50.0 mg/kg/injection, schedule: Q01DX009 (ip), vehicle: Klucel (hydroxypropylcellulose) (HPC)
[12] = dose: 100.0 mg/kg/injection, schedule: Q01DX009 (ip), vehicle: Klucel (hydroxypropylcellulose) (HPC)
[13] = dose: 200.0 mg/kg/injection, schedule: Q01DX009 (ip), vehicle: Klucel (hydroxypropylcellulose) (HPC)

CCc1nn(Cc2ccccc2)c2nc(C)c(CCc3ccccc3)c(Cl)c12
T/C (dose: 60.0 mg/kg/injection, schedule: Q01DX005 (ip), vehicle: Klucel (hydroxypropylcellulose) (HPC)): 92 % of control
T/C (dose: 120.0 mg/kg/injection, schedule: Q01DX005 (ip), vehicle: Klucel (hydroxypropylcellulose) (HPC)): 91 % of control
T/C (dose: 240.0 mg/kg/injection, schedule: Q01DX005 (ip), vehicle: Klucel (hydroxypropylcellulose) (HPC)): 94 % of control

CCC(=O)C12CCCC1=NC(=N)N=C2C1=NC(=N)N=C2CCCC21C(=O)CC (centres undefined)
T/C [1]: 102 % of control
T/C [2]: 108 % of control
T/C [3]: 88 % of control

CC1(C)C2CCC1(CS(=O)O)C(=O)C2.[Ag] (centres undefined)
T/C [4]: 111 % of control
T/C [5]: 105 % of control

Cc1cc(=O)c(C#N)c(C)o1
T/C [6]: 98 % of control
T/C [7]: 97 % of control
T/C [8]: 90 % of control

C=CC(=O)NN=C(c1ccccc1)c1ccccc1
T/C (dose: 42.0 mg/kg/injection, schedule: Q01DX009 (ip), vehicle: saline with Tween-80): 98 % of control
T/C (dose: 84.0 mg/kg/injection, schedule: Q01DX009 (ip), vehicle: saline with Tween-80): 103 % of control
T/C (dose: 168.0 mg/kg/injection, schedule: Q01DX009 (ip), vehicle: saline with Tween-80): 100 % of control

CC(=O)c1ccc(N=C(C#N)C2=C(O)c3ccccc3C2=O)cc1
T/C [6]: 115 % of control
T/C [7]: 120 % of control

CCCCOC(=O)NC(=O)c1cc2cc(Cl)cc(Cl)c2oc1=O
T/C [4]: 90 % of control
T/C [5]: 91 % of control

CCOC(=O)/C(=C(\C)N)n1[nH]c(=O)n(-c2ccccc2)c1=O
T/C (dose: 25.0 mg/kg/injection, schedule: Q01DX005 (ip), vehicle: Klucel (hydroxypropylcellulose) (HPC)): 98 % of control
T/C (dose: 50.0 mg/kg/injection, schedule: Q01DX005 (ip), vehicle: Klucel (hydroxypropylcellulose) (HPC)): 100 % of control and 103 % of control
T/C (dose: 100.0 mg/kg/injection, schedule: Q01DX005 (ip), vehicle: Klucel (hydroxypropylcellulose) (HPC)): 101 % of control and 96 % of control
T/C (dose: 200.0 mg/kg/injection, schedule: Q01DX005 (ip), vehicle: Klucel (hydroxypropylcellulose) (HPC)): 98 % of control and 103 % of control

COC(=O)c1cc2c3c(ccc2[nH]1)N(C(=O)c1cc2c4c(ccc2[nH]1)N(C(=O)c1cc2c5c(ccc2[nH]1)N(C(N)=O)CC5)CC4)CC3
T/C (dose: 12.5 mg/kg/injection, schedule: Q01DX005 (ip), vehicle: DMSO): 110 % of control
T/C (dose: 25.0 mg/kg/injection, schedule: Q01DX005 (ip), vehicle: DMSO): 111 % of control
T/C (dose: 50.0 mg/kg/injection, schedule: Q01DX005 (ip), vehicle: DMSO): 105 % of control
T/C (dose: 100.0 mg/kg/injection, schedule: Q01DX005 (ip), vehicle: DMSO): 112 % of control

O=C(OC1(c2nccc3ccccc23)CCN(Cc2ccccc2)CC1)c1ccccc1
T/C (dose: 12.5 mg/kg/injection, schedule: Q01DX009 (ip), vehicle: saline): 100 % of control
T/C (dose: 25.0 mg/kg/injection, schedule: Q01DX009 (ip), vehicle: saline): 101 % of control
T/C [9]: 93 % of control
T/C [10]: 97 % of control

COc1ccc(C(=O)C(C)(c2nc3n(c2O)C(=N)N=N3)c2nc3n(c2O)C(=N)N=N3)cc1 (centres undefined)
T/C [1]: 100 % of control
T/C [2]: 102 % of control
T/C [3]: 106 % of control

Nc1ccc2c(c1)CCCC2=O
T/C [6]: 102 % of control
T/C [7]: 93 % of control
T/C [8]: 107 % of control

NC(Cc1ccc(OC2CCCC2)c(N(CCCl)CCCl)c1)C(=O)O (centres undefined)
T/C (dose: 7.5 mg/kg/injection, schedule: Q04DX003 (ip), vehicle: saline): 168 % of control
T/C (dose: 15.0 mg/kg/injection, schedule: Q04DX003 (ip), vehicle: saline): 168 % of control
T/C (dose: 30.0 mg/kg/injection, schedule: Q04DX003 (ip), vehicle: saline): 218 % of control

COc1ccc2[nH]c3cc4c(=O)c5cc(OC)ccc5[nH]c4cc3c(=O)c2c1
T/C [11]: 96 % of control
T/C [12]: 100 % of control
T/C [13]: 100 % of control

COc1ccc(-c2sc(/N=C/c3cc(OC)c(OC)c(OC)c3)c(C#N)c2C)cc1OC
T/C (dose: 50.0 mg/kg/injection, schedule: Q04DX003 (ip), vehicle: saline with Tween-80): 101 % of control
T/C (dose: 100.0 mg/kg/injection, schedule: Q04DX003 (ip), vehicle: saline with Tween-80): 99 % of control
T/C (dose: 200.0 mg/kg/injection, schedule: Q04DX003 (ip), vehicle: saline with Tween-80): 100 % of control
T/C (dose: 400.0 mg/kg/injection, schedule: Q04DX003 (ip), vehicle: saline with Tween-80): 90 % of control

COc1ccc(C2CC(=O)NC(NC#N)=N2)c(O)c1 (centres undefined)
T/C [10]: 104 % of control
T/C (dose: 100.0 mg/kg/injection, schedule: Q01DX009 (ip), vehicle: saline): 102 % of control
T/C (dose: 200.0 mg/kg/injection, schedule: Q01DX009 (ip), vehicle: saline): 100 % of control

CCCCN(CCCC)CC(O)c1c(C)c2ccccc2c2ccccc12 (centres undefined)
T/C (dose: 9.0 mg/kg/injection, schedule: Q01DX009 (ip), vehicle: saline with Tween-80): 100 % of control
T/C (dose: 18.0 mg/kg/injection, schedule: Q01DX009 (ip), vehicle: saline with Tween-80): 100 % of control
T/C (dose: 36.0 mg/kg/injection, schedule: Q01DX009 (ip), vehicle: saline with Tween-80): 100 % of control

Cc1cc(CC(C)O)n[nH]1 (centres undefined)
T/C [11]: 109 % of control
T/C [12]: 106 % of control
T/C [13]: 102 % of control

COc1cc2ccnc(CCCc3nccc4cc(OC)c(OC)cc34)c2cc1OC
T/C (dose: 25.0 mg/kg/injection, schedule: Q04DX002 (ip), vehicle: Klucel (hydroxypropylcellulose) (HPC)): 101 % of control
T/C (dose: 50.0 mg/kg/injection, schedule: Q04DX002 (ip), vehicle: Klucel (hydroxypropylcellulose) (HPC)): 95 % of control
T/C (dose: 100.0 mg/kg/injection, schedule: Q04DX002 (ip), vehicle: Klucel (hydroxypropylcellulose) (HPC)): 101 % of control and 104 % of control

CC(NC(=O)c1ccc(C(C[N+](=O)[O-])SCCC(=O)O)cc1)C(=O)O (centres undefined)
T/C (dose: 60.0 mg/kg/injection, schedule: Q01DX005 (ip), vehicle: saline + Tween-80 + alcohol): 98 % of control
T/C (dose: 120.0 mg/kg/injection, schedule: Q01DX005 (ip), vehicle: saline + Tween-80 + alcohol): 99 % of control
T/C (dose: 240.0 mg/kg/injection, schedule: Q01DX005 (ip), vehicle: saline + Tween-80 + alcohol): 107 % of control

O=C1OCC/C1=C/OC(=O)c1ccccc1
T/C [6]: 93 % of control
T/C [7]: 99 % of control
T/C [8]: 106 % of control

CC(C(N)C(=O)NC(C(=O)O)C1OC(n2ccc(=O)[nH]c2=O)C(O)C1O)C(O)c1ccc(O)cn1 (centres undefined)
T/C (dose: 25.0 mg/kg/injection, schedule: Q01DX005 (ip), vehicle: saline): 100 % of control
T/C (dose: 50.0 mg/kg/injection, schedule: Q01DX005 (ip), vehicle: saline): 103 % of control
T/C (dose: 100.0 mg/kg/injection, schedule: Q01DX005 (ip), vehicle: saline): 100 % of control

Cc1ccc(C(=S)N=P(c2ccccc2)(c2ccccc2)c2ccccc2)cc1
T/C [4]: 99 % of control
T/C [5]: 107 % of control
T/C (dose: 200.0 mg/kg/injection, schedule: Q01DX005 (ip), vehicle: saline with Tween-80): 100 % of control

Cc1ccc(S(=O)(=O)N/N=C/C(Br)=C(/Br)C(=O)O)cc1
T/C (dose: 25.0 mg/kg/injection, schedule: Q01DX009 (ip), vehicle: distilled water + Tween-80): 154 % of control and 171 % of control
T/C (dose: 50.0 mg/kg/injection, schedule: Q01DX009 (ip), vehicle: distilled water + Tween-80): 157 % of control and 166 % of control

CSc1nnc(CCC(=O)Nc2cc(Cl)c(Cl)cc2Cl)o1
T/C [6]: 106 % of control
T/C [7]: 105 % of control
T/C [8]: 98 % of control

CC1CC(c2ccccc2)(c2ccccc2)CN1C (centres undefined)
T/C (dose: 12.5 mg/kg/injection, schedule: Q01DX005 (ip), vehicle: saline with Tween-80): 105 % of control
T/C (dose: 25.0 mg/kg/injection, schedule: Q01DX005 (ip), vehicle: saline with Tween-80): 102 % of control
T/C [4]: 102 % of control and 103 % of control

Cc1nnc(NC(=O)CCl)s1
T/C (dose: 25.0 mg/kg/injection, schedule: Q01DX009 (ip), vehicle: saline with Tween-80): 95 % of control
T/C [9]: 100 % of control
T/C (dose: 100.0 mg/kg/injection, schedule: Q01DX009 (ip), vehicle: saline with Tween-80): 104 % of control

COc1ccc(-c2c(C#N)c(N)nc(C)c2-c2ccccc2)cc1
T/C (dose: 100.0 mg/kg/injection, schedule: Q01DX001 (ip), vehicle: saline with Tween-80): 100 % of control
T/C (dose: 200.0 mg/kg/injection, schedule: Q01DX001 (ip), vehicle: saline with Tween-80): 96 % of control
T/C (dose: 400.0 mg/kg/injection, schedule: Q01DX001 (ip), vehicle: saline with Tween-80): 91 % of control
